From ChEMBL document CHEMBL1201862, “PubChem BioAssay data set” (2004)
The source made the active and inactive calls. Cut-off read from the data, not from the text of the source: actives have a measured IC50 and inactives only a lower limit.

Molecular target: Envelope glycoprotein gp160 (Human immunodeficiency virus 1, UniProt Q6QLK5)
Experiment: cell-free HIV fusion peptide-binding blockers – biochemical, uHTS, fluorescence dequenching, […] (AID 1986)

Sequence of Envelope glycoprotein gp160 (Q6QLK5 whole entry, the tested form may be a part): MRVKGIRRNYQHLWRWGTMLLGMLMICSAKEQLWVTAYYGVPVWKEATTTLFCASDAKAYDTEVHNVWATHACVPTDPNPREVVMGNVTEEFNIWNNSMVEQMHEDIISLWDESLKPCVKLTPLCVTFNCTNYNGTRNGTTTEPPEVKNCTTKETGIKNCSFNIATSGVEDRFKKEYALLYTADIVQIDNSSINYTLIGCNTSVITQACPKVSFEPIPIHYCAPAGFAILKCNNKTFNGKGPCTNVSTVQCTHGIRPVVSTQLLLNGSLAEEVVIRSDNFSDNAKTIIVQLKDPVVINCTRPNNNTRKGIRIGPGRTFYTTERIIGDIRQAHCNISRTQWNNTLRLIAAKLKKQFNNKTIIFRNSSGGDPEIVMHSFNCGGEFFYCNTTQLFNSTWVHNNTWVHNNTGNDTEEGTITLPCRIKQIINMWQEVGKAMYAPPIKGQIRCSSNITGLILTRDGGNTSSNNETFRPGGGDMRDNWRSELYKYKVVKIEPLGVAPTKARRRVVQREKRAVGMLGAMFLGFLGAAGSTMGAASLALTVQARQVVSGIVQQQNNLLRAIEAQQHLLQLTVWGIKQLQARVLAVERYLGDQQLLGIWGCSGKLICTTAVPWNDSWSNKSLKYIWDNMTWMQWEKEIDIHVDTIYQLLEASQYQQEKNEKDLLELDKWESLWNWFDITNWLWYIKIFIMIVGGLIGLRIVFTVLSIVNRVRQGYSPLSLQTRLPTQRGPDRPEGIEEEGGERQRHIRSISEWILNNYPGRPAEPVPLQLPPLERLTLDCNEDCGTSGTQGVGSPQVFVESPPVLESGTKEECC

## Cc1[nH]n(-c2ccccc2)c(=O)c1/C=C1/C(=O)NN(c2ccc(F)c(Cl)c2)C1=O
  IC50: 12.1 µM (active)
